Patent publication US9180111B2, “Reduction in complement activation and inflammation during tissue injury by carotenoids, carotenoid analogs, or derivatives thereof” (Cardax Pharma, Inc., priority 2005, dated 2015)

Key:
[1] = Determination of aqueous solubility/dispersibility; assay type: physicochemical
Description: (§1) 30.13 mg of 3 was added to 1 mL of USP-purified water. The sample was rotated for 2 hours, then centrifuged for 5 minutes. After centrifuging, solid was visible in the bottom of the tube. A 125-μL aliquot of the solution was then diluted to 25 mL. The sample was analyzed by UV/Vis spectroscopy at 436 nm, and the absorbance was compared to a standard curve compiled from 4 standards of known concentration. The concentration of the original supernatant was calculated to be 2.85 mg/mL and the absorptivity was 36.94 AU*mL/cm*mg. Slight error may have been introduced by the small size of the original aliquot.
as §1, with “Next, 30.80” for “30.13”, “9” for “3”, “411” for “436”, “29.27” for “2.85”, “2.90” for “36.94”

[2] = biological target: human serum albumin (HSA) (Homo sapiens, UniProt P02768); assay: Plasma-protein binding studies in vitro
Sequence of human serum albumin (HSA) (P02768 25-609): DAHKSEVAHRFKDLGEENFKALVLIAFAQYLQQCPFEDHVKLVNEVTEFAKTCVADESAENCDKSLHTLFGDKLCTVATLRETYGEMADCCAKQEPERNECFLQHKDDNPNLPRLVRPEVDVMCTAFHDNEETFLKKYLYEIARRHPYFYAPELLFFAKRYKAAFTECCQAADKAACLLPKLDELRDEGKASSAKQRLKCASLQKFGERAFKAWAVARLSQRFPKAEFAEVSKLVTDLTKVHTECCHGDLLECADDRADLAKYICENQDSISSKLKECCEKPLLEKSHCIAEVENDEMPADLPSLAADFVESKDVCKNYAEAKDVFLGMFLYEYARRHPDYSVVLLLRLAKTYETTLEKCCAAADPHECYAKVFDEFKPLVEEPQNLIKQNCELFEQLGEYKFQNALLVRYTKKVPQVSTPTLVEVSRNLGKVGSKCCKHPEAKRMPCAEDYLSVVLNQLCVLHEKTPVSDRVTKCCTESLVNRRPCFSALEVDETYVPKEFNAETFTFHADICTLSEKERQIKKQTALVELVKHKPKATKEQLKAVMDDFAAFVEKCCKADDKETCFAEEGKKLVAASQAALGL

## CC1=C(/C=C/C(C)=C/C=C/C(C)=C/C=C/C=C(C)/C=C/C=C(C)/C=C/C2=C(C)C(=O)[C@@H](O)CC2(C)C)C(C)(C)C[C@H](O)C1=O [astaxanthin, reference compound]
[1]
  solubility in water: insoluble in water

## CC1=C(/C=C/C(C)=C/C=C/C(C)=C/C=C/C=C(C)/C=C/C=C(C)/C=C/C2=C(C)C(=O)C(OC(=O)CCC(=O)O)CC2(C)C)C(C)(C)CC(OC(=O)CCC(=O)O)C1=O [meso-(3R,3S)-disodium disuccinate astaxanthin derivative]
[2]
  binding to human serum albumin: bound immediately and preferentially to human serum albumin
